We go through two compounds from ChEMBL document CHEMBL4043296 (J Med Chem, 2018).

Data set [1] concerns the target T1, Alpha-1D adrenergic receptor (Homo sapiens, UniProt P25100).
T1 sequence (P25100 whole entry): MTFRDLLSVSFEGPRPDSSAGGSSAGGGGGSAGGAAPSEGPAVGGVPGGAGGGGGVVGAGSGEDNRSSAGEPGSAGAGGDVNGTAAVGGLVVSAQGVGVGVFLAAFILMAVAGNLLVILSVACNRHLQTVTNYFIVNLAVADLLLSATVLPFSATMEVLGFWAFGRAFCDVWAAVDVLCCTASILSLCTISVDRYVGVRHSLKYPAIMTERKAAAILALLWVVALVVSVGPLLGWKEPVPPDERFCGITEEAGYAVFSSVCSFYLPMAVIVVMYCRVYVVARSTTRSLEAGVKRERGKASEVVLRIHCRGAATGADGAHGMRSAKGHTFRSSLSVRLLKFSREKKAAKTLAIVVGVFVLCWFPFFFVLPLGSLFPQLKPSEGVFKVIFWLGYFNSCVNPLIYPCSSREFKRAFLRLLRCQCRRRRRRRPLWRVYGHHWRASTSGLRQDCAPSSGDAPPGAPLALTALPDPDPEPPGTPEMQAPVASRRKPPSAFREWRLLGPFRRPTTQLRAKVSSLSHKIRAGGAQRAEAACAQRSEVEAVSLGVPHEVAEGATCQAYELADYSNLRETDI
In words: Displacement of [3H]prazosin from human recombinant alpha-1D adrenergic receptor expressed in CHO cell membranes after 30 mins by liquid scintillation counting method.

Data set [2] addresses T2, Alpha-1A adrenergic receptor (Homo sapiens, UniProt P35348).
T2 sequence (P35348 whole entry): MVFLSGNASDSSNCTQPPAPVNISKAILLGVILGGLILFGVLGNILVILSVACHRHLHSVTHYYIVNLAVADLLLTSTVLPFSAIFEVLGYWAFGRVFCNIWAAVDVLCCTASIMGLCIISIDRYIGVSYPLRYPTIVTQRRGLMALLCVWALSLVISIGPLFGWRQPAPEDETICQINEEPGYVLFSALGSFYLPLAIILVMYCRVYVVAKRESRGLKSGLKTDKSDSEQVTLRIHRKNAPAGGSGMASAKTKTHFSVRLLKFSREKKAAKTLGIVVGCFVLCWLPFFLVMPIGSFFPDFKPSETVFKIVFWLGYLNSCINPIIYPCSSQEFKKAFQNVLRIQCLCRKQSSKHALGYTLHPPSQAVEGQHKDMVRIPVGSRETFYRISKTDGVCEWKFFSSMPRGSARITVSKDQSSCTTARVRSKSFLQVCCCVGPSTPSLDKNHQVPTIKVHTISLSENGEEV
In words: Displacement of [3H]prazosin from human recombinant alpha-1A adrenergic receptor expressed in CHO cell membranes after 30 mins by liquid scintillation counting method.

Data set [3] addresses T3, Muscarinic acetylcholine receptor M5 (Homo sapiens, UniProt P08912).
T3 sequence (P08912 whole entry): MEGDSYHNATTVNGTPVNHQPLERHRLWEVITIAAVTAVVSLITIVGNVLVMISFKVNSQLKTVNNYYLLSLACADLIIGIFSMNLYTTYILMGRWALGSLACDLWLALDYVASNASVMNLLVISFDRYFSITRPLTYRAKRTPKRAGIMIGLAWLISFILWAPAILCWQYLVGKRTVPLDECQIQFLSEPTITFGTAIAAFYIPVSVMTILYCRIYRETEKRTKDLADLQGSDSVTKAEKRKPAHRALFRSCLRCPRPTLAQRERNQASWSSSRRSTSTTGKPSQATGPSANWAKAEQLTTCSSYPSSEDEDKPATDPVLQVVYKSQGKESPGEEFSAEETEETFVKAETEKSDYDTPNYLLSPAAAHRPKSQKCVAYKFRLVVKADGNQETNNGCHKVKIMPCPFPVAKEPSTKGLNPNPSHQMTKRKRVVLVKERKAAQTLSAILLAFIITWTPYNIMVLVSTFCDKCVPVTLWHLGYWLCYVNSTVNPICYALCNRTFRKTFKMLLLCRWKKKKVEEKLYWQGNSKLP
In words: Displacement of [3H]NMS from human muscarinic M5 receptor expressed in CHO cell membranes after 2 hrs by liquid scintillation counting method. On the technique in general: In a radioligand displacement assay an active substance lowers the binding of a labelled ligand.

The nature of data set [4]: Fraction unbound in mouse plasma at 0.5 uM by equilibrium dialysis method. Format: ADME, cell-free.
Data set [5] addresses T4, D(4) dopamine receptor (Homo sapiens, UniProt P21917).
T4 sequence (P21917 whole entry): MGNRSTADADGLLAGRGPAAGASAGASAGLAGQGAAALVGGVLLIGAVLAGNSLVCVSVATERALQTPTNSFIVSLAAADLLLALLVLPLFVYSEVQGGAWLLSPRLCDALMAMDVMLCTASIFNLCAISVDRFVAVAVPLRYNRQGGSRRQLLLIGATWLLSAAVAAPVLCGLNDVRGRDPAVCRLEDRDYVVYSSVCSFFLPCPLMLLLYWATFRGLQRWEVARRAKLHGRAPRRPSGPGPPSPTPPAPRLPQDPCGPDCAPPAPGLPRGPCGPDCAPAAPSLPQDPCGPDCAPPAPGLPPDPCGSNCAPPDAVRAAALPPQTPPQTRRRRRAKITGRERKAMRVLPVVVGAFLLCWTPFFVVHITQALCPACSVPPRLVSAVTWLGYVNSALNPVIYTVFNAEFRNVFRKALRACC
In words: Displacement of [3H]N-methylspiperone from human dopamine D4 receptor expressed in HEK293 cell membranes after 1 hr by scintillation counting method.

Data set [6] can be described thus: Kinetic solubility of the compound at pH 7.4 after 24 hrs by UPLC/UV/TOF-MS method. Type of data set: physicochemical. To be noted: buffer, read-out: Kinetic_solubility.
Data set [7] concerns the target Sigma non-opioid intracellular receptor 1 (Cavia porcellus, UniProt Q60492). The experiment in a line: Displacement of [3H](+)-pentazocine from sigma1 receptor in Hartley guinea pig brain cortex after 120 mins by scintillation counting method.
The subject of data set [8] is MDR1. In words: Apparent passive permeability across basolateral to apical side in MDCK2 cells expressing MDR1 at 3 uM after 60 mins by mass spectroscopy. Particulars: dog, MDCK-MDR1. Format: ADME, cell-based, Canis lupus familiaris, MDCK-II.
Data set [9] addresses T5, Muscarinic acetylcholine receptor M2 (Homo sapiens, UniProt P08172).
T5 sequence (P08172 whole entry): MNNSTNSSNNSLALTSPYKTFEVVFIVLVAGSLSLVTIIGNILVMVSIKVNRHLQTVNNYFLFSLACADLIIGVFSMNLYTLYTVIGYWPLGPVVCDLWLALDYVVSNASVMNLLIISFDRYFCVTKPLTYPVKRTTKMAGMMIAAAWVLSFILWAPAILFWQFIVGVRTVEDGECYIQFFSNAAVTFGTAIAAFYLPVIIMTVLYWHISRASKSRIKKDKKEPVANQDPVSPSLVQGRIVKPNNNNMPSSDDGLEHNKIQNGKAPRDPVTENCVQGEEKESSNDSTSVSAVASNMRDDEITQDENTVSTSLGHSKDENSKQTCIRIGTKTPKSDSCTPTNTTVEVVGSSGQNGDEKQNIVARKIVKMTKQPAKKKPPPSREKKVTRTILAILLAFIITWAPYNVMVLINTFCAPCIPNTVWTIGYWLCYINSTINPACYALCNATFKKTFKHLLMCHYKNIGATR
In words: Displacement of [3H]NMS from human muscarinic M2 receptor expressed in CHO cell membranes after 2 hrs by liquid scintillation counting method.

A short description of data set [10]: Fraction unbound in mouse brain at 5 uM by equilibrium dialysis method. Type of data set: ADME, tissue-based. On the technique in general: Equilibrium dialysis compares concentrations on both sides of a semipermeable membrane.

Converted amounts (≈) assume the structure as drawn.

Sequence of Sigma non-opioid intracellular receptor 1 (Q60492 whole entry): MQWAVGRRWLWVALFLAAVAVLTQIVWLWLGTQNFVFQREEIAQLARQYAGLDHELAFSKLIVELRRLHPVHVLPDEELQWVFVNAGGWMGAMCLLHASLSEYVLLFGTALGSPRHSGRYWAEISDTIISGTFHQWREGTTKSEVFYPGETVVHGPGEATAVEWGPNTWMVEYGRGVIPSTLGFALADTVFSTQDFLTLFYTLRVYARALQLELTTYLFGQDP

Broadly, the Ki is the dissociation constant of the complex between target and ligand, obtained from inhibition or displacement. Usually fraction unbound stands for free concentration divided by total concentration. High values mean weak binding, low ones extensive binding. As usually defined, the Papp B→A is how fast a substance crosses the layer from the basolateral side. As to `O=C1CCc2ccccc2N1CCCN1CCN(c2ccccc2)CC1`, the Ki in data set [1] is 91.2 nM; in data set [2], 53.7 nM; in data set [3], 27500 nM; in data set [5], 2.88 nM; in data set [7], 269 nM; in data set [9], 16600 nM. This compound registered a free fraction (fraction unbound) at 0.5 µM in data set [4] of 0.097. Besides, the solubility kinetic at 24 h in [6] came out at 520 µM (≈ 182 µg/mL). Besides, the basolateral-to-apical permeability (Papp B→A) at 1 h, 3 µM in [8] was 19.7 ×10⁻⁶ cm/s. The same compound came in with an unbound share (fraction unbound) at 5 µM in data set [10] of 0.086.

Take `O=C1CCc2ccccc2N1CCCN1CCC(Cc2ccccc2)CC1`: the inhibitory constant (Ki) in [1] was 302 nM; in data set [2] it was 257 nM; in data set [3], 3720 nM; in [5], 1.26 nM; in data set [7], 10 nM; in [9], 794 nM. Also, the fraction unbound at 0.5 µM in [4] is 0.1. For the same compound, the solubility kinetic at 24 h in [6] came to 477 µM (≈ 173 µg/mL). In [8], the Papp B→A at 1 h, 3 µM is 20.9 ×10⁻⁶ cm/s. Besides, the unbound share (fraction unbound) at 5 µM in data set [10] came to 0.051.
